Test results: US20210283099A1, “CDC7 KINASE INHIBITORS AND USES THEREOF” (SLOAN-KETTERING INSTITUTE FOR CANCER RESEARCH, priority 2010, published 2021)

Assays:
Assay in all cases: Cytotoxicity assay (Alamar blue)
Assay type in all cases: cell-based
ALBU = details: Homo sapiens, Patient sample of essential thrombocythemia transformed to refractory acute myelogenous leukemia
Procedure: (§1) FIGS. 16A-16B. Granaticin A and Granaticin B inhibit multiple tumor types: The indicated cell lines and primary patient samples were tested against the compounds listed in standard cytotoxicity assays (12 point dose response using Alamar blue reduction as an indicator of cell viability). Assays were done in triplicate and IC50 determinations were run in 12-point serial dilutions from […] to 5 nM. […] These include ras and EGFR gatekeeper mutation containing cell lines in addition to p53 mutant cell lines and other known chemotherapy resistant cell lines. Specifically, this included multi-drug resistance phenotype (MDR-overexpressing) cell lines from multiple hematologic and solid tumor cell lines. Table 1 highlights a series of primary patient leukemia samples-both acute and chronic and treatment naïve and refractory tested against granaticins A and B and Derivatives 1 and 2 (see Examples).

BE(2)C = details: human neuroblastoma, p53 mutant
Procedure: as §1

CWR22 = details: human prostate carcinoma
Procedure: as §1

DOGO = details: Homo sapiens, Patient sample of CLL with trisomy of chromosome 12 and unmutated Ig heavy chain locus
Procedure: as §1

GLHU = details: Homo sapiens, Patient sample of Chronic Myelogenous leukemia
Procedure: as §1

H11-18 = details: Human lung adenocarcinoma, L858R EGFR mutation
Procedure: as §1

H1650 = details: NCI-H1650, Human lung adenocarcinoma, DelE746-A750 EGFR mutation, wild-type RAS, PTEN null
Procedure: as §1

H1734 = details: NCI-H1734, Human lung adenocarcinoma, G13C KRAS mutation
Procedure: as §1

H1975 = details: NCI-H1975, Human lung adenocarcinoma, T790M/L858R EGFR mutation, R273H p53 mutation, PTEN null, wild-type KRAS
Procedure: as §1

H2030 = details: NCI-H2030, human lung adenocarcinoma, wild-type EGFR, G12C KRAS mutation, G262V P53 mutation, PTEN null
Procedure: as §1

H2122 = details: NCI-H2122, human lung adenocarcinoma, G12C KRAS mutation, Q16L and C176F P53 mutations
Procedure: as §1

H23 = details: NCI-H23, Human lung adenocarcinoma, G12c KRAS mutation, M246I P53 mutation
Procedure: as §1

H2444 = details: NCI-H2444, human lung adenocarcinoma, G12V KRAS mutation
Procedure: as §1

H3255 = details: NCI-H3255, Human lung adenocarcinoma, L858R EGFR mutation, wild-type KRAS, wild-type P53
Procedure: as §1

H460 = details: NCI-H460, human large cell lung carcinoma, Q61H KRAS mutation
Procedure: as §1

H820 = details: NCI-H820, human lung adenocarcinoma, Del E746-E749 and T790M EGFR mutations
Procedure: as §1

HCC827 = details: human lung adenocarcinoma, DelE746-A750 EGFR mutation
Procedure: as §1

HELA N10 = details: human cervical adenocarcinoma (positive for human papillomavirus infection)
Procedure: as §1

HL60 MX2 = details: Homo sapiens, MDR variant of HL60 selected with mitoxantrone-clone 2
Procedure: as §1

HL60 RV = details: Homo sapiens, HL-60, MDR variant of HL60 selected with vincristine
Procedure: as §1

HL60 = details: HL-60, Human Acute Promyelocytic leukemia
Procedure: as §1

JABR = details: Homo sapiens, Patient sample of relpased/refractory AML with normal cytogenetics and Flt-3 ITD
Procedure: as §1

JEKO = details: Human Mantle Cell Lymphoma
Procedure: as §1

JNDSRCT1 = details: Human desmoplastic small round cell tumor cell line
Procedure: as §1

JOQU = details: Homo sapiens, Patient sample of relapsed/refractory AML with trisomy of chromosome #8 and Flt-3 ITD
Procedure: as §1

MESO47 = details: human mesothelioma, WT-1 overexpression
Procedure: as §1

MOLT3 = details: MOLT-3, Human Acute Lympholastic T-cell Leukemia
Procedure: as §1

NCEB1 = details: Human Mantle Cell Lymphoma
Procedure: as §1

OVCAR3 = details: OVCAR-3, human ovarian adenocarcinoma
Procedure: as §1

RB355 = details: Human retinoblastoma
Procedure: as §1

RH30 = details: Human rhabdomyosarcoma, P53 mutation
Procedure: as §1

SKMEL28 = details: SK-MEL-28, Human melanoma
Procedure: as §1

SKOV3 = details: SK-OV-3, Human adenocarcinoma from the ovary derived from ascites, hypodiploid
Procedure: as §1

SW1736 = details: SW-1736, Human anaplastic thyroid carcinoma with BRAF V600E mutation
Procedure: as §1

Compound | IC50 (ALBU) [nM] | IC50 (BE(2)C) [nM] | IC50 (CWR22) [nM] | IC50 (DOGO) [nM] | IC50 (GLHU) [nM] | IC50 (H11-18) [nM] | IC50 (H1650) [nM] | IC50 (H1734) [nM] | IC50 (H1975) [nM] | IC50 (H2030) [nM] | IC50 (H2122) [nM] | IC50 (H23) [nM] | IC50 (H2444) [nM] | IC50 (H3255) [nM] | IC50 (H460) [nM] | IC50 (H820) [nM] | IC50 (HCC827) [nM] | IC50 (HELA N10) [nM] | IC50 (HL60 MX2) [nM] | IC50 (HL60 RV) [nM] | also measured
CC1OC2CC(O)C1(O)c1c(O)c3c(c(O)c12)C(=O)C1=C(C3=O)[C@H](C)O[C@H]2CC(=O)O[C@@H]12 (some centres unmarked) [Granaticin A, granaticin A] | 430 | 70 | 90 | 150 | 260 | 420 | 290 | 240 | 120 | 490 | 1190 | 120 | 310 | 210 | 390 | 90 | 280 | 1270 | 110 | 90 | IC50 (HL60): 140 nM; IC50 (JABR): 210 nM; IC50 (JEKO): 40 nM; IC50 (JNDSRCT1): 70 nM; IC50 (JOQU): 770 nM; IC50 (MESO47): 610 nM; IC50 (MOLT3): 30 nM; IC50 (NCEB1): 330 nM; IC50 (OVCAR3): 210 nM; IC50 (RB355): 90 nM; IC50 (RH30): 130 nM; IC50 (SKMEL28): 540 nM; IC50 (SKOV3): 120 nM; IC50 (SW1736): 160 nM
CC1OC2CC(O[C@H]3CC[C@H](O)[C@H](C)O3)C1(O)c1c(O)c3c(c(O)c12)C(=O)C1=C(C3=O)[C@H](C)O[C@H]2CC(=O)O[C@@H]12 (some centres unmarked) [Granaticin B, granaticin B] | 30 | 40 | 40 | 70 | 80 | 60 | 60 | 40 | 30 | 220 | 210 | 50 | 30 | 70 | 80 | 50 | 120 | 970 | 70 | 70 | IC50 (HL60): 90 nM; IC50 (JABR): 50 nM; IC50 (JEKO): 20 nM; IC50 (JNDSRCT1): 50 nM; IC50 (JOQU): 140 nM; IC50 (MESO47): 380 nM; IC50 (MOLT3): 10 nM; IC50 (NCEB1): 260 nM; IC50 (OVCAR3): 110 nM; IC50 (RB355): 40 nM; IC50 (RH30): 80 nM; IC50 (SKMEL28): 340 nM; IC50 (SKOV3): 40 nM; IC50 (SW1736): 20 nM
